From US20060069132A1, “Azolecarboxamide herbicides” (priority 2004, published 2006)

Assays:
pigweed = assay: Test B pre-/postemergence herbicide test; assay type: in vivo, Amaranthus retroflexus; conditions: for Pigweed plant response rating: postemergence
Method in brief: (§1)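 Test chemicals in a non-phytotoxic solvent mixture with surfactant were applied preemergence to seeded species and postemergence to plants 2-18 cm tall (1- to 4-leaf stage); rice and barnyardgrass were also tested in a flooded paddy at the 2-leaf stage. Visual rating versus controls after 13-15 days in greenhouse, scale 0 (no effect) to 100 (complete control).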

rice = assay: Test B flooded paddy test; assay type: in vivo, Oryza sativa; conditions: 1000 g ai/ha, scale 0 to 100 (0 no effect, 100 complete control)
Method in brief: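 Paddy species grown to the 2-leaf stage under flooding; blackgrass sprayed postemergence at 2–18 cm (1- to 4-leaf stage). Plants kept in a greenhouse for 13 to 15 days, then visually rated against controls on 0 (no effect) to 100 (complete control).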

giant foxtail = assay: Test B pre-/postemergence herbicide test; assay type: in vivo, Setaria faberi; conditions: for Foxtail, Giant plant response rating: postemergence
Method in brief: as §1

ducksalad = assay: Test B flooded paddy test; assay type: in vivo, Heteranthera limosa; conditions: 1000 g ai/ha, scale 0 to 100 (0 no effect, 100 complete control)
Method in brief: (§2)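 Postemergence plants were sprayed with formulated test chemicals at 2 to 18 cm height (1- to 4-leaf stage); paddy species were grown to the 2-leaf stage. After 13 to 15 days in a greenhouse, injury was rated visually against untreated controls on a 0–100 scale (0 = no effect, 100 = complete control).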

wild oat = assay: Test B postemergence herbicide test; assay type: in vivo, Avena fatua; conditions: postemergence
Method in brief: (§3)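 Scale 0–100: zero equals no visible effect, 100 complete control, judged by eye relative to controls. Timing: 13 to 15 days in greenhouse post-treatment. Growth stage at spraying: two leaves (paddy) or one to four leaves, 2–18 cm (postemergence).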

large crabgrass = assay: Test B pre-/postemergence herbicide test; assay type: in vivo, Digitaria sanguinalis; conditions: for Crabgrass, Large plant response rating: postemergence
Method in brief: as §1

Surinam grass = assay: Test B pre-/postemergence herbicide test; assay type: in vivo, Urochloa decumbens; conditions: for Surinam Grass plant response rating: postemergence
Method in brief: as §1

wheat = assay: Test B postemergence herbicide test; assay type: in vivo, Triticum aestivum; parameters: key to Wheat plant response rating: 0 = no effect, 100 = complete control; conditions: postemergence
Method in brief: as §3

barnyardgrass [1] = assay: Test B flooded paddy test; assay type: in vivo, Echinochloa crus-galli; conditions: 1000 g ai/ha, scale 0 to 100 (0 no effect, 100 complete control)
Method in brief: as §2

cocklebur = assay: Test B pre-/postemergence herbicide test; assay type: in vivo, Xanthium strumarium; conditions: for Cocklebur plant response rating: postemergence
Method in brief: (§4)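 Seeds were planted and treated preemergence with compounds formulated in a non-phytotoxic solvent mixture containing surfactant, while plants at the 1- to 4-leaf stage (2 to 18 cm) received postemergence sprays. Flooded paddy plants were grown to the 2-leaf stage. After 13 to 15 days in a greenhouse, injury was visually rated 0–100 against untreated controls.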

morningglory = assay: Test B pre-/postemergence herbicide test; assay type: in vivo, Ipomoea coccinea; conditions: for Morningglory plant response rating: postemergence
Method in brief: as §4

barnyardgrass [2] = assay: Test B pre-/postemergence herbicide test; assay type: in vivo, Echinochloa crus-galli; conditions: for Barnyardgrass plant response rating: postemergence
Method in brief: as §4

blackgrass = assay: Test B postemergence herbicide test; assay type: in vivo, Alopecurus myosuroides; conditions: postemergence
Method in brief: as §2

[3] = system: small flower umbrella sedge; assay: Test B flooded paddy test; assay type: in vivo, Cyperus difformis; conditions: 1000 g ai/ha, scale 0 to 100 (0 no effect, 100 complete control)
Method in brief: as §2

lambsquarters = assay: Test B pre-/postemergence herbicide test; assay type: in vivo, Chenopodium album; conditions: for Lambsquarters plant response rating: postemergence
Method in brief: as §1

corn = assay: Test B pre-/postemergence herbicide test; assay type: in vivo, Zea mays; conditions: for Corn plant response rating: postemergence
Method in brief: as §1

[4] = 125 g ai/ha, 0 = no effect, 100 = complete control, preemergence
[5] = 125 g ai/ha, visual rating, scale 0 (no effect) to 100 (complete control)
[6] = 500 g ai/ha, visual rating, 0 = no effect, 100 = complete control, preemergence
[7] = 500 g ai/ha, scale 0 to 100, 0 is no effect, 100 is complete control

Q: What does the source list for CCn1nc(C2(C)CC2)cc1C(=O)Nc1cc(C(=O)N(C)C)ccc1F [Compound 299]?
A: Pigweed plant response rating (0 to 100 scale) (pigweed; [4]): 100; Pigweed plant response rating (pigweed; [5]): 90; Plant response rating, Pigweed (pigweed; [6]): 100; Pigweed plant response rating (pigweed; [7]): 100; Rice plant response rating (rice): 90; Foxtail, Giant plant response rating (0 to 100 scale) (giant foxtail; [4]): 100; Foxtail, Giant plant response rating (giant foxtail; [5]): 10; Plant response rating, Foxtail, Giant (giant foxtail; [6]): 100; Foxtail, Giant plant response rating (giant foxtail; [7]): 80; Ducksalad plant response rating (ducksalad): 90; Oat, Wild plant response rating (wild oat; [5]): 20; Oat, Wild plant response rating (wild oat; [7]): 40; Crabgrass, Large plant response rating (0 to 100 scale) (large crabgrass; [4]): 100; Crabgrass, Large plant response rating (large crabgrass; [5]): 10; Plant response rating, Crabgrass, Large (large crabgrass; [6]): 100; Crabgrass, Large plant response rating (large crabgrass; [7]): 90; Surinam Grass plant response rating (0 to 100 scale) (Surinam grass; [4]): 100; Surinam Grass plant response rating (Surinam grass; [5]): 20; Plant response rating, Surinam Grass (Surinam grass; [6]): 100; Surinam Grass plant response rating (Surinam grass; [7]): 80; Wheat plant response rating (wheat; [5]): 20; Wheat plant response rating (wheat; [7]): 30; Barnyardgrass plant response rating (barnyardgrass [1]): 90; Cocklebur plant response rating (0 to 100 scale) (cocklebur; [4]): 20; Cocklebur plant response rating (cocklebur; [5]): 20; Plant response rating, Cocklebur (cocklebur; [6]): 60; Cocklebur plant response rating (cocklebur; [7]): 70; Morningglory plant response rating (0 to 100 scale) (morningglory; [4]): 40; Morningglory plant response rating (morningglory; [5]): 70; Plant response rating, Morningglory (morningglory; [6]): 100; Morningglory plant response rating (morningglory; [7]): 80; Barnyardgrass plant response rating (0 to 100 scale) (barnyardgrass [2]; [4]): 90; Barnyardgrass plant response rating (barnyardgrass [2]; [5]): 10; Plant response rating, Barnyardgrass (barnyardgrass [2]; [6]): 100; Barnyardgrass plant response rating (barnyardgrass [2]; [7]): 90; Blackgrass plant response rating (blackgrass; [5]): 20; Blackgrass plant response rating (blackgrass; [7]): 50; Sedge, Umbrella plant response rating [3]: 90; Lambsquarters plant response rating (0 to 100 scale) (lambsquarters; [4]): 100; Lambsquarters plant response rating (lambsquarters; [5]): 40; Plant response rating, Lambsquarters (lambsquarters; [6]): 100; Lambsquarters plant response rating (lambsquarters; [7]): 100; Corn plant response rating (0 to 100 scale) (corn; [4]): 50; Corn plant response rating (corn; [5]): 0; Plant response rating, Corn (corn; [6]): 90; Corn plant response rating (corn; [7]): 20
